According to publication PMC4376724, “Differential Phenotypic and Functional Profiles of TcCA-2 -Specific Cytotoxic CD8^+ T Cells in the Asymptomatic versus Cardiac Phase in Chagasic Patients” (PLoS ONE, 2015):

Target: HLA-A*02:01 (Homo sapiens, UniProt P04439, D140Y/D185E/D98H/E176V/E277Q/G131W/G231S/I119V/I121R/I166T/I218V/L300P/L318F/N151K/N90K/P208A/P217A/Q86G/Q94H/R138H/R169H/T345S)
Assay: HLA-A*02:01 binding assay (surface stabilization on TAP-deficient T2 cells)
Conditions: different peptide concentrations in duplicate, serum-free RPMI, overnight at room temperature, PE anti-HLA-A2 (BB7.2) flow cytometry, referred to 25 μM HB-ENV335-343 peptide
Description: TAP-deficient T2 cells were used for the HLA-A*02:01 binding assays and the K562-A2 cells for the HLA-A*02:01 restriction assay. The cells were cultured in complete RPMI medium supplemented with 10% of inactivated Fetal Calf Serum (iFCS), 2 mM glutamine, and 100 U/ml penicillin. K562-A2 cells, expressing the HLA-A*02:01 molecule were cultured in the presence of […] of G-418, as previously described. The T2 and K562-A2 cells were kindly provided by Dr. Pedro Romero (University of Lausanne) and by Dr Peter Ponsaerts (University of Antwerp, with the permission of Dr. Cedrik Britten from Johanes Gutenberg-University Mainz), respectively.
HLA-A*02:01 surface stabilization test was carried out as described in [42]. Briefly, TAP-deficient T2 cells were loaded with different concentrations of each peptide, in duplicate in serum-free RPMI medium, and incubated overnight at room temperature. Afterwards, the cells were stained with a PE-labeled HLA-A2-specific antibody (BB7.2 clone, BD biosciences) and analyzed by flow cytometry. The high-affinity HLA-A*02:01-binding peptide […] ([…]) was included as internal standard. Affinity data were calculated as the percentage of maximum complex stabilization, as described in [44]. The following equation was used: % of maximal stabilization = 100 x [(mean fluorescence with peptide)–(background mean fluorescence)]/[(mean fluorescence with 25 μM HBENV335-343 peptide)–(background mean fluorescence)]. Background value was obtained with cells incubated in the same conditions without peptide.
The percentage of maximal binding stabilization of these eight TcCA-2 peptides was evaluated using TAP-deficient T2 cells and different concentrations of each peptide. […] The maximal binding affinity is shown for each peptide in Table 1.

ALRNLRVFL [TcCA-2_607-615]
% maximal stabilization: 29.54%

TVFDASRSTV [TcCA-2_442-451]
% maximal stabilization: 24.44%

AAAGDKLSL [TcCA-2_273-281]
% maximal stabilization: 12.41%

ALQVTNHRYL [TcCA-2_657-666]
% maximal stabilization: 21.49%
